Literature values as cited in article PMC7434893 (British Journal of Cancer, 2020).

target: tankyrase 1/2; conditions: relative to E7449; cited from earlier work

Row | Structure (SMILES) | IC50 values for tankyrase inhibition, fold higher than E7449
1 | NC(=O)c1cccc2cn(-c3ccc([C@@H]4CCCNC4)cc3)nc12 [niraparib] | 5–20 fold
2 | O=C(c1cc(Cc2n[nH]c(=O)c3ccccc23)ccc1F)N1CCN(C(=O)C2CC2)CC1 [olaparib] | 5–20 fold
3 | C[C@]1(c2nc3c(C(N)=O)cccc3[nH]2)CCCN1 [veliparib] | 5–20 fold
